Where a SMILES comes first, the peptide text is derived from it. Bridges are numbered along the chain shown (N, C = ends). [ ]: non-standard residue; d: D form. The star is where a group is joined. X1 = CC[C@H](C)CCCCC(=O)*; Dab = NCC[C@H](N)C(=O)O
System: mucin from the porcine stomach
Assay: PMB binding to mucin by ultracentrifugation in CAMHB with 1% mucin
Assay type: in vitro ADME
Parameters: Unbound conc.: unit not given here
Method: Mucin from the porcine stomach was obtained from Sigma-Aldrich (Merck KGaA, Saint-Quentin Fallavier, France) and solubilized in NaCl 0.9% to obtain a solution at 20% (pH adjusted to 7). The solution was autoclaved at 110°C for 15 minutes.
PMB solutions at concentrations ranging from 0.5 to 10,000 mg/L in CAMHB with 1% mucin were incubated for 1 h at 35°C, then ultracentrifuged at ~290 000 g for 5 h at room temperature (Beckman Optima LE-80K, rotor: Beckman Coulter 70.1 Ti), according to a method previously described ([35]). Unbound PMB concentrations in the supernates were determined by LC-MS/MS (method adapted from a previous publication ([36]) and detailed in Supplemental material) and used to determine the unbound fraction (fu) of PMB. Potential PMB sedimentation ([37]) during experimentation was determined from PMB solutions prepared in mucin-free CAMHB and subjected to the same ultracentrifugation conditions as previously described, and then used to correct for unbound PMB concentrations.
The same procedure was performed with a nonautoclaved mucin solution. Experiments were done in triplicate.
The relationship between fu and PMB total concentrations was modeled according to a sigmoidal Emax function (equation 1):
(1) fu=E0+ Imax × C^ε/IC50ε+ C^ε,
where E0 represents the minimum fu, Imax the maximum increase in fu, IC50 (mg/L) corresponds to PMB total concentration needed to reach 50% of Imax, C (mg/L) to the PMB total concentration, and ε to the Hill coefficient.
Parameter estimation was performed using nonlinear regression with iteratively reweighted least squares (R, version 4.1.3 – Package: robustbase, version 0.99–0). Two sets of parameters were estimated, one for the data generated with autoclaved mucin, another for the data generated without autoclave. The two sets of parameters were compared using ANOVA testing.

[1] = equation 1 fit, all data pooled, value (variance) in Table 1, CAMHB + 1% mucin, ultracentrifugation, LC-MS/MS, triplicate
[2] = equation 1 fit, autoclaved mucin data
[3] = equation 1 fit, non-autoclaved mucin data
[4] = simulated with equation 1, autoclaved mucin parameters, total conc. 0.5, CAMHB + 1% mucin
[5] = simulated with equation 1, autoclaved mucin parameters, total conc. 1, CAMHB + 1% mucin
[6] = simulated with equation 1, autoclaved mucin parameters, total conc. 2, CAMHB + 1% mucin
[7] = simulated with equation 1, autoclaved mucin parameters, total conc. 4, CAMHB + 1% mucin
[8] = simulated with equation 1, autoclaved mucin parameters, total conc. 8, CAMHB + 1% mucin
[9] = simulated with equation 1, autoclaved mucin parameters, total conc. 10, CAMHB + 1% mucin
[10] = simulated with equation 1, autoclaved mucin parameters, total conc. 50, CAMHB + 1% mucin
[11] = simulated with equation 1, autoclaved mucin parameters, total conc. 100, CAMHB + 1% mucin
[12] = simulated with equation 1, autoclaved mucin parameters, total conc. 500, CAMHB + 1% mucin
[13] = simulated with equation 1, autoclaved mucin parameters, total conc. 1000, CAMHB + 1% mucin
[14] = simulated with equation 1, autoclaved mucin parameters, total conc. 5000, CAMHB + 1% mucin
[15] = simulated with equation 1, autoclaved mucin parameters, total conc. 10000, CAMHB + 1% mucin
[16] = simulated with equation 1, non-autoclaved mucin parameters, total conc. 0.5, CAMHB + 1% mucin
[17] = simulated with equation 1, non-autoclaved mucin parameters, total conc. 1, CAMHB + 1% mucin
[18] = simulated with equation 1, non-autoclaved mucin parameters, total conc. 2, CAMHB + 1% mucin
[19] = simulated with equation 1, non-autoclaved mucin parameters, total conc. 4, CAMHB + 1% mucin
[20] = simulated with equation 1, non-autoclaved mucin parameters, total conc. 8, CAMHB + 1% mucin
[21] = simulated with equation 1, non-autoclaved mucin parameters, total conc. 10, CAMHB + 1% mucin

CC[C@H](C)CCCCC(=O)N[C@@H](CCN)C(=O)N[C@H](C(=O)N[C@@H](CCN)C(=O)N[C@H]1CCNC(=O)[C@H]([C@@H](C)O)NC(=O)[C@H](CCN)NC(=O)[C@H](CCN)NC(=O)[C@H](CC(C)C)NC(=O)[C@@H](Cc2ccccc2)NC(=O)[C@H](CCN)NC1=O)[C@@H](C)O [PMB, polymyxin B] (X1-[Dab]T[Dab][Dab][Dab][dF]L[Dab][Dab]T; lactam 4-C)
PMB bound to mucin (PMB concentrations encountered in clinical practice, up to 10 mg/L, 1% mucin): approximately 95% | PMB unbound fraction (fu), maximum (PMB total concentration of 200 mg/L (b7) or higher than 200 mg/L, CAMHB + 1% mucin, ultracentrifugation, LC-MS/MS): 60% | PMB unbound fraction (fu) (PMB total concentrations up to 20 mg/L, CAMHB + 1% mucin, 1 h 35°C, ultracentrifugation ~290 000 g 5 h, LC-MS/MS, triplicate): 6% | IC50, PMB total concentration needed to reach 50% of the maximum fu [1]: 114.37 (196) mg/L | Imax, maximum PMB fu increase [1]: 0.56 (0.0009) | ε, Hill coefficient of fu vs total concentration [1]: 1.97 (0.252) | IC50 of fu model [2]: 104.01 µg/mL | Imax, maximum fu increase [2]: 0.56 | E0, minimum fu (equation 1 fit, autoclaved mucin data, CAMHB + 1% mucin, ultracentrifugation): 0.067 | IC50 of fu model [3]: 126.95 µg/mL | Imax, maximum fu increase [3]: 0.57 | E0, minimum fu (equation 1 fit, non-autoclaved mucin data, CAMHB + 1% mucin, ultracentrifugation): 0.056 | E0, minimum PMB fu value (sigmoidal Emax fit of fu vs PMB total concentration (equation 1), all data pooled, value (variance) in Table 1, CAMHB + 1% mucin, 1 h 35°C, ultracentrifugation ~290 000 g 5 h room temperature, LC-MS/MS, triplicate): 0.061 (0.0004) | Unbound conc. [4]: 0.03 | fu (95% CI) [4]: 6.7 (0.1 - 13.2) % | Unbound conc. [5]: 0.07 | fu (95% CI) [5]: 6.7 (0.1 - 13.2) % | Unbound conc. [6]: 0.13 | fu (95% CI) [6]: 6.7 (0.1 - 13.2) % | Unbound conc. [7]: 0.27 | fu (95% CI) [7]: 6.7 (0.3 - 13.2) % | Unbound conc. [8]: 0.55 | fu (95% CI) [8]: 6.9 (0.7 - 13.0) % | Unbound conc. [9]: 0.70 | fu (95% CI) [9]: 7.0 (1.0 - 13.0) % | Unbound conc. [10]: 7.96 | fu (95% CI) [10]: 15.9 (7.7 – 24.2) % | Unbound conc. [11]: 33.4 | fu (95% CI) [11]: 33.4 (24.9 – 41.9) % | Unbound conc. [12]: 304 | fu (95% CI) [12]: 60.8 (55.0 - 66.6) % | Unbound conc. [13]: 621 | fu (95% CI) [13]: 62.1 (57.2 – 67.1) % | Unbound conc. [14]: 3120 | fu (95% CI) [14]: 62.5 (57.1 – 67.9) % | Unbound conc. [15]: 6250 | fu (95% CI) [15]: 62.5 (57.1 – 68.0) % | Unbound conc. [16]: 0.03 | fu (95% CI) [16]: 5.6 (2.1 - 9.1) % | Unbound conc. [17]: 0.06 | fu (95% CI) [17]: 5.6 (2.1 - 9.1) % | Unbound conc. [18]: 0.11 | fu (95% CI) [18]: 5.6 (2.2 - 9.1) % | Unbound conc. [19]: 0.23 | fu (95% CI) [19]: 5.7 (2.3 - 9.1) % | Unbound conc. [20]: 0.48 | fu (95% CI) [20]: 5.9 (2.7 - 9.1) % | Unbound conc. [21]: 0.61 | fu (95% CI) [21]: 6.1 (3.0 - 9.2) %

— PMC12057341, “In vitro pharmacokinetic/pharmacodynamic modeling of the effect of mucin on polymyxin B activity against Acinetobacter baumannii” (Antimicrobial Agents and Chemotherapy, 2025)
